# “Also recorded” adds a separate entry of the source.
# Key:
# MCMV [1] = test: Immunization after MCMV challenge in combination with Gancyclovir; MCMV-DNA PCR in salivary glands; type: in vivo, BALB/c mice; details: day 30 after challenge; GCV i.p. with or without one immunization on day 6
# Protocol: DNA was extracted from naïve and infected spleens and salivary gland using QiAmp Tissue Kit (QIAGEN Inc. Chatsworth, Calif., USA), according to appropriate QiAmp protocols. DNA oligonucleotide primers were synthesized according to the published sequence of MCMV gB gene (Rapp et al., 1992). […]. This gB gene primer pair amplifying a 356 bp segment was found the most sensitive in previous studies (Palmon et al., 1996). For gene amplification, 1 μg of DNA sample was added to the reaction mixture containing 200 μM each dNTP, 100 pmol each primer, 1.0 mM MgSO4, 10 mM KCl, 10 mM (NH4)2SO4, 20 mM Tris-HCl (pH 8.8), 0.1% Triton X-100 and 2 U of vent polymerase (Biolabs) in a total reaction volume of 50 μl each. Samples were amplified for 30 cycles in an automated thermal cycler (Perkin Elmer Cetus, USA). Each cycle entailed denaturation at 94° C. for 60 sec, annealing at 68° C. for 90 sec and primer extension at 72° C. for 120 sec. PCR products were electrophoretically separated on 1.5% agarose gel, stained with ethidium bromide, and photographed. The lower limit of detection for this method under the experimental conditions was 5 femtograms of viral DNA corresponding to about 20 copies of the MCMV genome (Palmon et al., 1996).
# 3-week old BALB/c mice were challenged i.p. with 5×10^4 pfu of MCMV (day 0). On day 6, mice were immunized once with IFA alone, 89pep or p458-89pep emulsified in IFA, as described above. Mice were treated with 100 μg of the anti viral medication Gancyclovir (GCV, Roche, Basel, Switzerland) i.p. on days 1, 2, 3, 4, 8, 9, 10 and 11 after challenge. Mice were sacrificed on day 30 after challenge and MCMV-DNA was measured by a PCR assay in the salivary glands, as specified above (FIG. 14A).
# MCMV [2] = test: Infectious MCMV titers in salivary gland of immunized mice after MCMV challenge (plaque assay); type: in vivo, BALB/c mice; details: for Infectious MCMV titer in salivary gland: immunized twice, peptides in IFA
# [3] = test system: salivary gland mononuclear cells; test: IFNγ-positive salivary gland mononuclear cells 28 days after MCMV challenge of vaccinated mice; type: in vivo, BALB/c mice; details: 28 days after virus challenge of immunized mice; 8 hr 89pep stimulation
# splenocytes = test: Proliferation of splenocytes from mice immunized with p15 conjugates, stimulated in vitro with p15; type: in vivo; details: spleens 10 days after immunization; p15 25 μg/ml, 3 days
# Protocol: (§1) Mice were immunized with the following peptides as described in Example 8 using the following peptides: p15 (SEQ ID NO:11), p32 (SEQ ID NO:13), Ec27-p15 ([…], SEQ ID NO:77), and Mock-p15 ([…], SEQ ID NO:80—the p431 peptide fused to p15).
# (§2) Spleens were harvested 10 days after the immunization and splenocytes were cultured with p15 (25 μg/ml) for 3 days. Cell proliferation and IFNγ levels in the supernatants of spleen cell cultures were measured. Results are the average of 3 independent proliferation experiments. Ec27-Ep15* and Ec27-Ep15** are two identical but independent groups in the same experiment.
# IFN-γ = IFN-γ secretion of splenocytes from mice immunized with p15 conjugates, stimulated in vitro with p15; type: in vivo; details: spleens 10 days after immunization; p15 25 μg/ml, 3 days
# Protocol: as §1, §2
# IVIG-IL (anti-WNV Abs) = test: ELISA recognition of peptides by IVIG-IL; type: binding, human; details: peptide 1 μg/well; IVIG-IL 1:40 dilution
# Protocol: (§3) ELISA tests were performed according to the method described by Martin et al (Martin et al, 2000) with slight modifications. Briefly, microtiter plates were coated and incubated overnight at 4° C. with 100 μl of the different peptides (1 μg/well) or WNV antigen diluted 1:700 in coating buffer (NaHCO3, pH=9.6). After incubation, the coating buffer was decanted and the plates were washed twice in PBS containing 0.05% Tween 20 and 0.2% sodium azide (washing buffer). After blocking for 1 h with a 200 μl/wen of PBS containing 0.05% Tween 20 and 2.5% nonfat dry milk, the plates were washed 4 times in washing buffer and 100 μl of IVIG-IL or mouse sera at 1:40 dilution were added to each well (2-4 wells per sample). Negative and positive controls of human or mouse sera were tested in each plate. […] The color intensity was measured by ELISA-reader (Dynatec MR 5000) at the absorbance of 405 nm.
# (§4) Next, it was examined whether the candidate epitope is recognized by a serum immunoglobulin pool taken from Israeli donors (IVIG-IL), which contains anti-WNV Abs. […] After blocking and washing, IVIG-IL was added at 1:40 dilution and binding was detected. […]
# [4] = test system: serum from WNV-infected mice; test: ELISA recognition of peptides by serum from WNV-infected mice; type: binding; details: peptide 1 μg/well; sera 1:40 dilution
# Protocol: as §3, §4
# WNV = test: Protective efficacy of immunization against WNV challenge (mortality); type: in vivo, BALB/c mice; details: for Mortality (% deaths) / Mortality (dead of total): 3 immunizations, 10^6 pfu WNV, 21 days post challenge, 5 experiments
# [5] = test system: sera from WNV-exposed human subjects; test: ELISA recognition of WNV peptides by human sera; type: binding; details: for Recognition by sera of WNV-exposed and unexposed human subjects: ELISA, peptide as antigen
# Protocol: Sera from WNV-exposed and non-exposed human subjects was assayed for antibodies recognizing the novel WNV peptide antigens, p15 (SEQ ID NO:11) and p17 (SEQ ID NO:21). FIG. 17 presents the results of an ELISA test in which the p15 and p17 served as the antigen, human sera were used as the primary antibody and HRP-conjugated anti-human Abs were used as the secondary antibody. RLU are the relative luminescence units produced by HRP activity on the luminal substrate.
# Sera S2 and S6 are from human that were not infected with WNV while sera S1, S3-S5 and S7 are from human that had history of WNV infection.
# IFNγ = IFNγ ELISA of spleen and salivary gland cell cultures after vaccination; type: in vivo, BALB/c mice; details: 10 days after single immunization; for IFNγ secretion of spleen cells stimulated in vitro with p458: 3 d stimulation with p458
# IL-4 = IL-4 ELISA of spleen cell cultures after vaccination; type: in vivo, BALB/c mice; details: spleen cell cultures of immunized mice
# MCMV gB DNA = test: PCR of MCMV gB DNA in salivary glands of immunized, MCMV-challenged mice; type: in vivo, BALB/c mice; details: day 28 after MCMV challenge
# [6] = test system: IFNγ-positive spleen cells; test: FACS intracellular IFNγ staining of spleen cells after vaccination; type: in vivo, BALB/c mice; details: 7 days after one immunization; 5 days re-stimulation with 89pep
# Protocol: For phenotypic analysis, spleen and salivary gland mononuclear cells of MCMV-infected and naïve mice were cultured as described above and were stained for CD8 and CD4, IFNγ and IL-5 using directly-labeled antibodies (PharMingen, San Diego, Calif.). Intracellular cell staining (ICCS) for IFNγ, IL-4 and IL-5 was performed using PharMingen's Cytofix/Cytoperm Plus kit with GolgiPlug (containing Brefeldin A) according to the manufacturer's instructions. Briefly, GolgiPlug was added to the 8 h-incubated immune cell cultures (established as described above, with or w/o peptide stimulation). After the additional 6 h of incubation in the incubator cells (minimum 10^6 per sample) were harvested, washed in PBS supplemented with 2% FBS and 0.09% Sodium azide, and incubated in 50 μl of FC blocker, labeled with anti-CD4 and anti-CD8 surface markers. Then cells were fixed, permeabilized and treated with anti-IFNγ, anti-IL-4 or anti-IL-5 antibodies for intracellular cytokine detection. Stained cells were immediately analyzed on a FACSCalibur flow cytometer (Becton-Dickinson, Mansfield, Mass.) and 50,000 to 100,000 events/sample were acquired and analyzed with CellQuest software.
# We characterized the nature of cells secreting the IFNγ by flow cytometry. Mice were immunized once with the different peptides and an additional group was infected with MCMV. Seven days later, spleens were removed and cell suspensions were cultured for 5 days with or without 89pep. […] Infection with MCMV and re-stimulation with 89pep induced the highest percentage of IFNγ^+CD8^+ T cells (FIG. 5B). Staining was specific to IFNγ since no CD8^+IL-4^+ or CD8^+IL-5^+ cells were observed.
# [7] = test system: P815 cells pulsed with the 89pep; test: Cytotoxic T cell assay of spleen cell cultures after vaccination; type: in vivo, BALB/c mice; details: spleens 7 d after one immunization, 6 days re-stimulation with 89pep; P815 loaded with 89pep
# Protocol: The cytotoxic activity against the MCMV 89pep was assessed in a 4-h cytotoxic assay using the CytoTox 96 non-radioactive, colorimetric-based kit (Promega, Madison, Wis.), according to manufacturer instructions. This assay is based on the quantitative measurement of lactate dehydrogenase, a stable cytosolic enzyme that is released upon cell lysis. Spleen cell suspensions from immunized mice, prepared as described above, were re-stimulated in vitro for 6 days with 89pep (10 μg/ml) and rhIL-2 (25 IU/ml) from day 2. Target cells for the lysis assay were P815 cells (mastocytoma, H-2^d). P815 were either non-pulsed or pulsed with 89pep (1 μg/ml) for 2 h and then washed before incubation with effector cells. In all experiments shown, the spontaneous release was less than 25% of maximal release. Each point in a lysis assay represents the average of triplicate values. The range of the triplicates was within 5% of their mean.
# We also investigated whether the CD8^+IFNγ^+ cells induced by the p458-89pep were able to lyse specifically 89pep-loaded target cells. Mice were immunized once and 7 d later, spleens were harvested and re-stimulated with 89pep. Six days later, lytic activity was assayed on P815 (H-2^d) loaded with the 89pep. […]
compound,measurement,setting,value
"Nc1nc(O)c2ncn(COC(CO)CO)c2n1 [GCV, Gancyclovir]",CMV load at the salivary gland (MCMV-DNA PCR),MCMV [1],did not suffice for therapy
EGDEATGANI-KVALEAYPHFHPTNL (EGDEATGANIKVALEAYPHFHPTNL) [control-89pep],Effect of immunization on salivary gland viral load,MCMV [2]; day 28 after MCMV challenge,did not affect the viral load
FNNFTVSFWLRVPKVSASHLEYPHFMPTNL [TTp30-89pep],Effect of immunization on salivary gland viral load,MCMV [2]; day 28 after MCMV challenge,reduced viral load on day 28 by two fold; also recorded: failed to eliminate infectious virus on day 28; also recorded: contained infectious virus on day 28 post challenge
same,Effect of immunization on salivary gland viral load,MCMV [2]; days 14 and 21 after MCMV challenge,did not affect viral load on days 14 and 21
same,CD8+IFNγ+ cells in salivary gland,[3],CD8^+IFNγ^+ cells were observed
KKARVEDALHATRAAVEEGVLVTVNPFVSVATANS [Ec27-p15],Proliferation of spleen cells in the presence of p15,splenocytes,more effective than p15 alone
same,IFN-γ secretion of spleen cells in the presence of p15,IFN-γ,more effective than p15 alone
LVTVNPFVSVATANS [p15],Recognition by IVIG-IL,IVIG-IL (anti-WNV Abs),recognized by IVIG-IL
same,Recognition by serum from WNV-infected mice,[4],specifically recognized
same,Mortality (% deaths),WNV,(53%)
same,Mortality (dead of total),WNV,8/15
same,Protective efficacy against WNV challenge,WNV; summary of 5 experiments,slight protective efficacy
same,Recognition by sera of WNV-exposed and unexposed human subjects,[5],specifically recognized by WNV-exposed sera and not by sera from unexposed subjects
same,Recognition by sera from Dengue-infected humans,[5]; data not shown,did not recognize
NEDQKIGIEIIKRALKI [p458],IFNγ secretion of spleen cells stimulated in vitro with p458,IFNγ,high levels of IFNγ
same,IL-4 levels after Con-A stimulation in vitro,IL-4,184 pg/mL
same,Mortality (% deaths),WNV,(57%)
same,Mortality (dead of total),WNV,4/7
NEDQKIGIEIIKRALKIYPHFHPTNL [p458-89pep],Effect of immunization on salivary gland viral load,MCMV [2]; day 28 after MCMV challenge,showed no infectious MCMV in the salivary gland
same,Infectious MCMV titer in salivary gland,MCMV [2]; day 28 after MCMV challenge,< 2 log10 pfu/0.1 g
same,MCMV gB PCR product in salivary glands,MCMV gB DNA,failed to reveal any gB PCR product
same,IFNγ secretion of spleen cells stimulated in vitro with p458,IFNγ,high levels of IFNγ
same,IFNγ secretion of spleen cells re-stimulated in vitro with 89pep,"IFNγ; 3 d stimulation, 89pep 10 μg/ml",significantly higher (p<0.05) levels of IFNγ
same,IL-4 levels after Con-A stimulation in vitro,IL-4,317 pg/mL
same,IFNγ+CD4+ T cells in spleen cell cultures,[6],no IFNγ^+CD4^+ T cells
same,IFNγ+CD8+ T cells in spleen cell cultures,[6],induced IFNγ^+CD8^+ T cells
same,89pep-specific lytic (CTL) activity,[7],lysed the target cells
same,CD8+IFNγ+ cells in salivary gland,[3],larger than that of the other groups
same,CMV load at the salivary gland (MCMV-DNA PCR),MCMV [1],reduced viral load to undetectable levels
YIVVGRGEQQINHHWHK [p17],Recognition by sera of WNV-exposed and unexposed human subjects,[5],specifically recognized by WNV-exposed sera and not by sera from unexposed subjects
YPHFHPTNL [89pep],Effect of immunization on salivary gland viral load,MCMV [2]; day 28 after MCMV challenge,marginal advantage compared to IFA-immunized mice; also recorded: contained infectious virus on day 28 post challenge
same,Infectious MCMV titer in salivary gland,MCMV [2]; day 28 after MCMV challenge,4.5 log10 pfu/0.1 g
same,IL-4 levels after Con-A stimulation in vitro,IL-4,146 pg/mL
same,IFNγ+CD8+ T cells in spleen cell cultures,[6],very few IFNγ^+CD8^+ T cells
same,89pep-specific lytic (CTL) activity,[7],No lytic activity was observed
same,CD8+IFNγ+ cells in salivary gland,[3],CD8^+IFNγ^+ cells were observed
same,CMV load at the salivary gland (MCMV-DNA PCR),MCMV [1],did not affect CMV load

# Source: patent US8652439B2, “Compositions of HSP60 peptides and viral antigens for vaccination and diagnosis” (priority 2005, dated 2014)
